{
  "source": "patent US11572590B2",
  "about": "“Methods for evaluating tumor cell spheroids using 3D microfluidic cell culture device” (Dana-Farber Cancer Institute, Inc., priority 2017, dated 2023)",
  "assay_in_all_cases": "SelectScreen Kinase Profiling, single point inhibition and IC50 for off-target kinases",
  "assay_type_in_all_cases": "biochemical",
  "key": {"[1]": {"target": "off-target kinases (Homo sapiens, UniProt P42685)", "sequence (P42685 whole entry)": "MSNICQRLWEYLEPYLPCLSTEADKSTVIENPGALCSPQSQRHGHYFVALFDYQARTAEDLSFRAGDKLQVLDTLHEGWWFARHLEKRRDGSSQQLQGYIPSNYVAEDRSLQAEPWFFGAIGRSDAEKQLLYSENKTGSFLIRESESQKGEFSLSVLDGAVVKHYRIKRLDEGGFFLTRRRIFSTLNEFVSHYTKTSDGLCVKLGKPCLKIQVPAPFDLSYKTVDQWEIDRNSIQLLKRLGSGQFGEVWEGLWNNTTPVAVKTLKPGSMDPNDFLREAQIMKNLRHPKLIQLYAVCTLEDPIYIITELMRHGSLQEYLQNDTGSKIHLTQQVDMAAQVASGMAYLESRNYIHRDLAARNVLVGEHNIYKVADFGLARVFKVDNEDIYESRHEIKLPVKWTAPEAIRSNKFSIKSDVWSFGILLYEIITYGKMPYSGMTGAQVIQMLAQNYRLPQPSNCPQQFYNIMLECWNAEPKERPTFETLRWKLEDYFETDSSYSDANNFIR", "conditions": "FRK (PTK5), ZLYTE, ATP Km app"}, "[2]": {"target": "off-target kinases (Homo sapiens, UniProt P35916)", "sequence (P35916 25-1363)": "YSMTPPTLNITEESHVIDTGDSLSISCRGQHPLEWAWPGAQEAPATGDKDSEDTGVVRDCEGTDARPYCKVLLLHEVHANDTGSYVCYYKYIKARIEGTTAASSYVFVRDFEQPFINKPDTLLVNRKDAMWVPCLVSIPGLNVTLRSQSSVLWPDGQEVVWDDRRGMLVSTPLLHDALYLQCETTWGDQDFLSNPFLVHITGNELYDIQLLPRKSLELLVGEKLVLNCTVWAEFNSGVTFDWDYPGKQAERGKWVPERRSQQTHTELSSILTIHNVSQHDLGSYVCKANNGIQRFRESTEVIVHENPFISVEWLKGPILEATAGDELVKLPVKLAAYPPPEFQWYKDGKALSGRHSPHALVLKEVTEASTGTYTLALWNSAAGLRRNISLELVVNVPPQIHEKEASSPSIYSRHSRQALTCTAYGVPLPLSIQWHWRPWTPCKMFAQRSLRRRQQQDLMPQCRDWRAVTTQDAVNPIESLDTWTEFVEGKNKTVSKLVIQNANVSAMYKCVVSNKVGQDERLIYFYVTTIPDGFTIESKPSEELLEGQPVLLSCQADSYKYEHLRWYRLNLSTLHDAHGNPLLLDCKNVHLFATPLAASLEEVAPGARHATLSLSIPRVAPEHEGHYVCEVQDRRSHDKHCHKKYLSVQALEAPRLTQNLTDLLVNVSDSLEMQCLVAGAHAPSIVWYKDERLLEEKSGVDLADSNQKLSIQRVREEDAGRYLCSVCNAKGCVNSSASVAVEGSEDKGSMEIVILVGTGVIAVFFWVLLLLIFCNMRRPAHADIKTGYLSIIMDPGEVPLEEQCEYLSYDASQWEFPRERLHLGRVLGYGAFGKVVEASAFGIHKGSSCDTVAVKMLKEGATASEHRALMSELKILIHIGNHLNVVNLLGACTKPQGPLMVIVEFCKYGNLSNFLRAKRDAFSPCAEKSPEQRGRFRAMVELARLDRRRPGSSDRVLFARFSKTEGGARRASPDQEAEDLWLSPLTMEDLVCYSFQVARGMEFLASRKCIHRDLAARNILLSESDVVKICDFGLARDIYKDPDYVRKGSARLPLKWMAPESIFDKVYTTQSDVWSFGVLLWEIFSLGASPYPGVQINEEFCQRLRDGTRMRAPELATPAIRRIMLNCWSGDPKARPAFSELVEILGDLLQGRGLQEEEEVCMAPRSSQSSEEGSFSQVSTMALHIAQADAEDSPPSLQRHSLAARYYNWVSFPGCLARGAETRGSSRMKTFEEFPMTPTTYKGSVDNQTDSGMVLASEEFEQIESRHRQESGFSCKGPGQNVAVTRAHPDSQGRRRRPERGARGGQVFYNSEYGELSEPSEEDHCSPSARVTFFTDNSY", "conditions": "FLT4 (VEGFR3), ATP Km app, ZLYTE"}, "[3]": {"target": "T1, off-target kinases (Homo sapiens, UniProt Q8IW41)", "T1 sequence (Q8IW41 1-473)": "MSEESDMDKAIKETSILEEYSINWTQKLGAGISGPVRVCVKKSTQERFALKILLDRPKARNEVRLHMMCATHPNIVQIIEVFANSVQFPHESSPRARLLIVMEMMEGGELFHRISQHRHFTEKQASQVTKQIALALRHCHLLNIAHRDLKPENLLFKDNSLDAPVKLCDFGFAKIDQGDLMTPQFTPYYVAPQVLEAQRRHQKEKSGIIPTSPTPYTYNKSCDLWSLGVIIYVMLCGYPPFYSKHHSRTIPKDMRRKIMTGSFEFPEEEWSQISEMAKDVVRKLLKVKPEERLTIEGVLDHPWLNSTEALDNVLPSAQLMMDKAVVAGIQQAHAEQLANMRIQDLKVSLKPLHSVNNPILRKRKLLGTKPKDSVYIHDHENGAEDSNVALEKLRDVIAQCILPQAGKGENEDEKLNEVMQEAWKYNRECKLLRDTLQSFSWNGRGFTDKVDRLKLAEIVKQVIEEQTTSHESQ", "conditions": "MAPKAPK5 (PRAK), ZLYTE, ATP Km app"}, "[4]": {"target": "T2, off-target kinases (Homo sapiens, UniProt Q15139)", "T2 sequence (Q15139 1-912)": "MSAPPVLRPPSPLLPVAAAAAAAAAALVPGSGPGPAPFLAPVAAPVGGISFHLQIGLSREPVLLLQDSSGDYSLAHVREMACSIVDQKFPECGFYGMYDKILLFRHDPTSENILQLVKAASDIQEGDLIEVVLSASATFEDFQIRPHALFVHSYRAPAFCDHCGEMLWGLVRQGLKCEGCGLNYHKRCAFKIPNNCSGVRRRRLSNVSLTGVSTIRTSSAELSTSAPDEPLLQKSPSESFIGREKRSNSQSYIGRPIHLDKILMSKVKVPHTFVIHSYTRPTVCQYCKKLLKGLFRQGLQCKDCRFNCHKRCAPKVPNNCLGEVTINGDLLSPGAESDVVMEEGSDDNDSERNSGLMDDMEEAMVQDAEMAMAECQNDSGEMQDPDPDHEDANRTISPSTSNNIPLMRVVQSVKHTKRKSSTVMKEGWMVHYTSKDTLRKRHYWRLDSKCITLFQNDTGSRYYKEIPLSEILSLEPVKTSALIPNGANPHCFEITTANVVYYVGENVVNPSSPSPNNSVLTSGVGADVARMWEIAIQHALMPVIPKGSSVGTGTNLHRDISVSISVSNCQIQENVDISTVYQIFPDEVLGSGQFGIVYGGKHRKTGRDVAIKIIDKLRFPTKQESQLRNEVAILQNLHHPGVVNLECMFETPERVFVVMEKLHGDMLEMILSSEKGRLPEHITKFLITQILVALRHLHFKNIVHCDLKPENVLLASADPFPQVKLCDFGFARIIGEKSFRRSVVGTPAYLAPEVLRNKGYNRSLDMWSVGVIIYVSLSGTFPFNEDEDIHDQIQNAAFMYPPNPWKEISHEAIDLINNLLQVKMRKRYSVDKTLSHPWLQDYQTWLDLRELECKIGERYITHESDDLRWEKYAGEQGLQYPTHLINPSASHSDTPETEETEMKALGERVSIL", "conditions": "PRKD1 (PKC mu), ATP Km app, ZLYTE"}, "[5]": {"target": "off-target kinases (Homo sapiens, UniProt Q9UEW8)", "conditions": "STK39 (STLK3), LanthaScreen"}},
  "note": "Where two headings read alike, the source gives them in different places.",
  "data": [
    {"compound": "N#Cc1cc(-c2ncnc(Nc3ccc(N4CCN(C5COC5)CC4)cc3)n2)ccc1OC1CCOCC1", "note": "[Compound 1, 5-(4-((4-(4-(oxetan-3-yl)piperazin-1-yl)phenyl)amino)-1,3,5-triazin-2-yl)-2-((tetrahydro-2H-pyran-4-yl)oxy)benzonitrile]", "values": [
      {"measurement": "inhibition", "setting": "[1]; read-out: % Inhibition 1", "value": 11, "unit": "%"},
      {"measurement": "inhibition", "setting": "[1]; read-out: % Inhibition 2", "value": 13, "unit": "%"},
      {"measurement": "inhibition", "setting": "[1]; read-out: % Inhibition Avg", "value": 12, "unit": "%"},
      {"measurement": "inhibition", "setting": "[2]; read-out: % Inhibition 1", "value": 64, "unit": "%"},
      {"measurement": "inhibition", "setting": "[2]; read-out: % Inhibition 2", "value": 60, "unit": "%"},
      {"measurement": "inhibition", "setting": "[2]; read-out: % Inhibition Avg", "value": 62, "unit": "%"},
      {"measurement": "inhibition", "setting": "[3]; read-out: % Inhibition 1", "value": 6, "unit": "%"},
      {"measurement": "inhibition", "setting": "[3]; read-out: % Inhibition 2", "value": 7, "unit": "%"},
      {"measurement": "inhibition", "setting": "[3]; read-out: % Inhibition Avg", "value": 6, "unit": "%"},
      {"measurement": "inhibition", "setting": "[4]; read-out: % Inhibition 1", "value": 100, "unit": "%"},
      {"measurement": "inhibition", "setting": "[4]; read-out: % Inhibition 2", "value": 95, "unit": "%"},
      {"measurement": "inhibition", "setting": "[4]; read-out: % Inhibition Avg", "value": 98, "unit": "%"},
      {"measurement": "inhibition", "setting": "[5]; read-out: % Inhibition 1", "value": 10, "unit": "%"},
      {"measurement": "inhibition", "setting": "[5]; read-out: % Inhibition 2", "value": 9, "unit": "%"},
      {"measurement": "inhibition", "setting": "[5]; read-out: % Inhibition Avg", "value": 10, "unit": "%"}
    ]}
  ]
}
